According to ChEMBL document CHEMBL6127034, “Design, synthesis and biological evaluation of a novel PAK1 degrader for the treatment of triple negative breast cancer” (Bioorg Med Chem, 2024):
pKd: −log10 of the molar value. Calls of active or inactive are those of the source. No cut-off for these calls is given here.

Key:
MDA-MB-231 [1] = test: Inhibition of cell proliferation of human MDA-MB-231 cells xenografted in BALB/c mouse assessed as reduction in Ki-67 level at 20 mg/kg, ip qd for 12 days by IHC analysis; format: functional, organism-based; details: time 12.0 day
[2] = biological target: T1, von Hippel-Lindau disease tumor suppressor/Serine/threonine-protein kinase PAK 1 (Homo sapiens, UniProt Q13153+P40337); test: PROTAC activity at VHL/PAK1 in human MDA-MB-231 cells assessed as induction of protein degradation incubated for 48 hrs by Western blot analysis; format: cell-based
[3] = biological target: T1, von Hippel-Lindau disease tumor suppressor/Serine/threonine-protein kinase PAK 1; test: PROTAC activity at VHL/PAK1 in human MDA-MB-231 cells assessed as induction of protein degradation incubated for 48 hrs in presence of VHL by Western blot analysis; format: cell-based
Target sequence in this assay (Q13153 2-545 limits assumed): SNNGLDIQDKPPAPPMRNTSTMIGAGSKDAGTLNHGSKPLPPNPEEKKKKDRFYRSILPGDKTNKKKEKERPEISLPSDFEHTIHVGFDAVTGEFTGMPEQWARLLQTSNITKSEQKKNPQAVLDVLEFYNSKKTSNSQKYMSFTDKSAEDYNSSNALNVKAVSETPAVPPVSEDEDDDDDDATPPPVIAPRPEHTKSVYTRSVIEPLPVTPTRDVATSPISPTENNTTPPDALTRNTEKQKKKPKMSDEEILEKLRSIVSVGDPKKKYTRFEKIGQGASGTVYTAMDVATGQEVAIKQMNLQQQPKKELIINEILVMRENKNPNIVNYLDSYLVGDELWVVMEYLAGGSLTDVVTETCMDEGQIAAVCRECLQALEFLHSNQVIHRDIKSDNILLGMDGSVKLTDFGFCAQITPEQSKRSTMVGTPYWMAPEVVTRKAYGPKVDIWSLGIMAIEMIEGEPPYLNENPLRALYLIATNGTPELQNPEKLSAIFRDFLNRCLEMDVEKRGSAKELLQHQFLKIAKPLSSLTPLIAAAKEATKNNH
Target sequence in this assay (P40337 whole entry partner): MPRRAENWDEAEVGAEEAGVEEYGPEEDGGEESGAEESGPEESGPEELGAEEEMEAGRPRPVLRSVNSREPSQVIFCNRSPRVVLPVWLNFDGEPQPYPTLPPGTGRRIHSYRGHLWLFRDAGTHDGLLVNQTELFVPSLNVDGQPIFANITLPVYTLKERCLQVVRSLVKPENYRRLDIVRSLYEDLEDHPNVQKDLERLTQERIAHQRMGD

MDA-MB-231 [4] = test: Induction of apoptosis in human MDA-MB-231 cells assessed as necrotic cells at 2.5 to 10 uM incubated for 12 hrs by Annexin V-FITC/PI staining based flow cytometry (reference value: 1.08 %); format: functional; details: dose 2.5-10 µM
MDA-MB-231 [5] = test: Induction of apoptosis in human MDA-MB-231 cells assessed as necrotic cells at 2.5 uM incubated for 12 to 48 hrs by Annexin V-FITC/PI staining based flow cytometry (reference value: 0.43 %); format: functional; details: time 12-48 hrs
MDA-MB-231 [6] = test: Induction of apoptosis in human MDA-MB-231 cells assessed as early apoptotic cells at 2.5 to 10 uM incubated for 48 hrs by Annexin V-FITC/PI staining based flow cytometry (reference value: 1.70 %); format: functional; details: dose 2.5-10 µM
MDA-MB-231 [7] = test: Induction of apoptosis in human MDA-MB-231 cells assessed as viable cells at 2.5 to 10 uM incubated for 48 hrs by Annexin V-FITC/PI staining based flow cytometry (reference value: 94.8 %); format: functional; details: dose 2.5-10 µM
MDA-MB-231 [8] = test: Induction of apoptosis in human MDA-MB-231 cells xenografted in BALB/c mouse assessed as decrease in ERK1/2 phosphorylation at Thr202/Tyr204 at 20 mg/kg, ip qd for 12 days by Western blot analysis; format: functional, organism-based; details: time 12.0 day
MDA-MB-231 [9] = test: Inhibition of cell migration in human MDA-MB-231 cells assessed as decrease in MMP-2 level by Western blot analysis; format: functional, cell-based; details: time <= 48.0 hrs, TDE = time-dependent effect
MDA-MB-231 [10] = test: Induction of apoptosis in human MDA-MB-231 cells xenografted in BALB/c mouse assessed as increase in PARP level at 20 mg/kg, ip qd for 12 days by Western blot analysis; format: functional, organism-based; details: time 12.0 day
MDA-MB-231 [11] = test: Induction of apoptosis in human MDA-MB-231 cells assessed as viable cells at 2.5 uM incubated for 12 to 48 hrs by Annexin V-FITC/PI staining based flow cytometry (reference value: 97.0 %); format: functional; details: time 12-48 hrs, read-out: Activity
MDA-MB-231 [12] = test: Inhibition of cell migration in human MDA-MB-231 cells upto 10 uM incubated for 24 hrs by transwell assay; format: functional, cell-based
MDA-MB-231 [13] = test: Induction of apoptosis in human MDA-MB-231 cells assessed as late apoptotic cells at 2.5 to 10 uM incubated for 24 hrs by Annexin V-FITC/PI staining based flow cytometry (reference value: 2.46 %); format: functional; details: dose 2.5-10 µM
[14] = biological target: T2, Serine/threonine-protein kinase PAK 1 (Homo sapiens, UniProt Q13153); test: Binding affinity to CM5 chip-immobilized recombinant PAK1 (unknown origin) assessed as dissociation constant by SPR analysis
T2 sequence (Q13153 whole entry): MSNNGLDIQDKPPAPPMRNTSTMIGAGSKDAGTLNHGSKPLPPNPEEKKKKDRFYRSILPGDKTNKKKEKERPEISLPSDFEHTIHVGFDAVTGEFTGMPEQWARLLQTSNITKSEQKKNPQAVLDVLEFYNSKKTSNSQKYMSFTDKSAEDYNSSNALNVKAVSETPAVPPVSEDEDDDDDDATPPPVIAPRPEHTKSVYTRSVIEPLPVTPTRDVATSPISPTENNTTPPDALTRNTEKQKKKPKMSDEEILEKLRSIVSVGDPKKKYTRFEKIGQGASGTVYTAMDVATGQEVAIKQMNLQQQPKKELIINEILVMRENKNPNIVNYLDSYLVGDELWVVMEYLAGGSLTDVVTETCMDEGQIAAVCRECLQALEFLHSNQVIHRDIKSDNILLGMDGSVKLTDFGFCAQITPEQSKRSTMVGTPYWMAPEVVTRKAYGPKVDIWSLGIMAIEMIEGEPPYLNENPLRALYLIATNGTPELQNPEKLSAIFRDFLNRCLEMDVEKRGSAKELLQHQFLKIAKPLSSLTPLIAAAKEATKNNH

MDA-MB-231 [15] = test: Antiproliferative activity against human MDA-MB-231 cells assessed as decrease in colony formation by crystal violet staining based analysis; format: functional, cell-based; details: dose <= 10.0 µM
MDA-MB-231 [16] = test: Inhibition of cell migration in human MDA-MB-231 cells at 2.5 uM incubated upto 48 hrs by wound healing assay; format: functional, cell-based
MDA-MB-231 [17] = test: Inhibition of cell migration in human MDA-MB-231 cells assessed as increase in E-Cadherin level by Western blot analysis; format: functional, cell-based; details: time <= 48.0 hrs, TDE = time-dependent effect
[18] = biological target: T2, Serine/threonine-protein kinase PAK 1; test: In vivo inhibition of PAK1 phosphorylation at S144 in human MDA-MB-231 cells xenografted in BALB/c mouse at 20 mg/kg, ip qd for 12 days by Western blot analysis; format: functional, organism-based; details: time 12.0 day
MDA-MB-231 [19] = test: Inhibition of formation of human MDA-MB-231 cells tumor sphere by crystal violet staining based analysis; format: functional, cell-based; details: time <= 48.0 hrs, TDE = time-dependent effect
[20] = biological target: Serine/threonine-protein kinase PAK 3 (Homo sapiens) (UniProt O75914); test: Inhibition of PAK3 in human MDA-MB-231 cells incubated upto 48 hrs by Western blot analysis; format: cell-based
Chain of Serine/threonine-protein kinase PAK 3 (Homo sapiens) (O75914 whole entry, looked up): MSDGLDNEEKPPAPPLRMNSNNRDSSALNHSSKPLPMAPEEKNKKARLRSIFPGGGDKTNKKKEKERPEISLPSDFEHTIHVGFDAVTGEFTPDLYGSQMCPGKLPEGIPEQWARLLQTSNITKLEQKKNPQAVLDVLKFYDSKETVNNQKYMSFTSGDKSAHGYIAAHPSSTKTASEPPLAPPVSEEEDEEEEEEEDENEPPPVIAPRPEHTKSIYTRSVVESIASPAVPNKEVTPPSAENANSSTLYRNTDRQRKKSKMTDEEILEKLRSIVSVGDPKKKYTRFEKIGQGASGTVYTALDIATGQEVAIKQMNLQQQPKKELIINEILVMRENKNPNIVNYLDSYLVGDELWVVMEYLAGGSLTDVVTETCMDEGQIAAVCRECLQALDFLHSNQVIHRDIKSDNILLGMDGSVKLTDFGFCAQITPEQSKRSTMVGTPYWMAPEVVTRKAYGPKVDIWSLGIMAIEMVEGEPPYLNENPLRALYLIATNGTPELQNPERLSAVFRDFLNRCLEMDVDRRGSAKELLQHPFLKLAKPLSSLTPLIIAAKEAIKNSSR

MDA-MB-231 [21] = test: Induction of apoptosis in human MDA-MB-231 cells assessed as early apoptotic cells at 2.5 uM incubated for 12 to 48 hrs by Annexin V-FITC/PI staining based flow cytometry (reference value: 1.12 %); format: functional; details: time 12-48 hrs
[22] = Toxicity in BALB/c mouse xenografted with human MDA-MB-231 cells assessed as animal growth at 20 mg/kg, ip qd for 12 days; format: organism-based; details: in vivo, 288 h, time 12 day
MDA-MB-231 [23] = test: Induction of apoptosis in human MDA-MB-231 cells xenografted in BALB/c mouse assessed as increase in E-Cadherin level at 20 mg/kg, ip qd for 12 days by Western blot analysis; format: functional, organism-based; details: time 12.0 day
MDA-MB-231 [24] = test: Induction of apoptosis in human MDA-MB-231 cells xenografted in BALB/c mouse assessed as decrease in MMP-2 at 20 mg/kg, ip qd for 12 days by Western blot analysis; format: functional, organism-based; details: time 12.0 day
MDA-MB-231 [25] = test: Induction of apoptosis in human MDA-MB-231 cells assessed as late apoptotic cells at 2.5 to 10 uM incubated for 48 hrs by Annexin V-FITC/PI staining based flow cytometry (reference value: 2.46 %); format: functional; details: dose 2.5-10 µM
MDA-MB-231 [26] = test: Induction of apoptosis in human MDA-MB-231 cells assessed as viable cells at 2.5 to 10 uM incubated for 24 hrs by Annexin V-FITC/PI staining based flow cytometry (reference value: 94.8 %); format: functional; details: dose 2.5-10 µM
[27] = biological target: T2, Serine/threonine-protein kinase PAK 1; test: Induction of thermal stability of PAK1 in human MDA-MB-231 cells at 10 uM under 37 to 67 degreeC heat exposure by CETSA; format: cell-based
MDA-MB-231 [28] = test: Antitumor activity against human MDA-MB-231 cells xenografted in BALB/c mouse assessed as reduction in tumor volume at 20 mg/kg, ip qd for 12 days; format: functional, organism-based; details: time 12.0 day
MDA-MB-231 [29] = test: Induction of apoptosis in human MDA-MB-231 cells assessed as early apoptotic cells at 2.5 to 10 uM incubated for 12 hrs by Annexin V-FITC/PI staining based flow cytometry (reference value: 1.70 %); format: functional; details: dose 2.5-10 µM
MDA-MB-231 [30] = test: Induction of apoptosis in human MDA-MB-231 cells assessed as necrotic cells at 2.5 to 10 uM incubated for 48 hrs by Annexin V-FITC/PI staining based flow cytometry (reference value: 1.08 %); format: functional; details: dose 2.5-10 µM
MDA-MB-231 [31] = test: Induction of apoptosis in human MDA-MB-231 cells assessed as viable cells at 2.5 to 10 uM incubated for 12 hrs by Annexin V-FITC/PI staining based flow cytometry (reference value: 94.8 %); format: functional; details: dose 2.5-10 µM
[32] = biological target: T2, Serine/threonine-protein kinase PAK 1; test: Inhibition of PAK1 in human MDA-MB-231 cells incubated upto 48 hrs by Western blot analysis; format: cell-based

Cc1ncsc1-c1ccc([C@H](C)NC(=O)[C@@H]2C[C@@H](O)CN2C(=O)[C@@H](NC(=O)CCc2cn(CCCCCCCn3c(=O)c(-c4ccc(Cl)cc4Cl)cc4cnc(NC5CC5)nc43)nn2)C(C)(C)C)cc1
inhibition (MDA-MB-231 [1]): Active | DC50 [2]: 0.48 µM | Activity ([2]; dose <= 200.0 µM): Dose-Dependent Effect | Activity [3]: inactive | Activity (MDA-MB-231 [4]): 3.7% | Activity (MDA-MB-231 [5]): 1.4% | Activity (MDA-MB-231 [6]): 37.9% | Activity (MDA-MB-231 [7]): 55.4% | Activity (MDA-MB-231 [8]): Active | inhibition (MDA-MB-231 [9]): Tde | Activity (MDA-MB-231 [10]): Active | viability at 2.5 µM (MDA-MB-231 [11]): 84.8% | inhibition (MDA-MB-231 [12]): Active | Activity (MDA-MB-231 [13]): 6.74% | pKd [14]: 4.79 | Activity (MDA-MB-231 [15]): Dose-Dependent Effect | inhibition (MDA-MB-231 [16]): Active | inhibition (MDA-MB-231 [17]): Tde | inhibition [18]: Active | inhibition (MDA-MB-231 [19]): Tde | inhibition [20]: inactive | Activity (MDA-MB-231 [21]): 5.62% | Activity [22]: Non-Toxic | Activity (MDA-MB-231 [23]): Active | Activity (MDA-MB-231 [24]): Active | Activity (MDA-MB-231 [25]): 4.94% | Activity (MDA-MB-231 [26]): 76.6% | Activity [27]: Active | Activity (MDA-MB-231 [28]): Active | Activity (MDA-MB-231 [29]): 4.37% | Activity (MDA-MB-231 [30]): 1.74% | Activity (MDA-MB-231 [31]): 86.3% | inhibition [32]: Active
